{"source": "patent US8759334B2", "about": "“Compounds useful for the treatment of metabolic and inflammatory diseases” (Galapagos NV, priority 2011, dated 2014)"}
{"biological_target": "T1, GPR43 (Homo sapiens, UniProt O15552)", "T1 construct": "expressed in transfected cells", "T1 sequence (O15552 1-330)": "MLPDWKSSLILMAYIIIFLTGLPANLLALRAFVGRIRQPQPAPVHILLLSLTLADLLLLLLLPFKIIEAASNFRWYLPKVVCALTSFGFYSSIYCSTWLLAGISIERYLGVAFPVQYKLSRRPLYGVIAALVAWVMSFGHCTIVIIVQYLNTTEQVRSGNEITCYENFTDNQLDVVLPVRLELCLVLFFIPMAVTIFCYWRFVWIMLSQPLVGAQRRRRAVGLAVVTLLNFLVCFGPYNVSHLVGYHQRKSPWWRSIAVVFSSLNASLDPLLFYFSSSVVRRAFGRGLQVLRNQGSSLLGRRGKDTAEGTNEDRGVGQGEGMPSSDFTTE", "experiment": "Calcium mobilization assay with probenecid", "type": "cell-based", "settings": "GPR43 stably expressing cells; triggered with sodium acetate at EC80; 2.5 mM probenecid; read-out: GPR43 assay with probenicid IC50", "how_it_was_run": "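[…] being added at rising concentrations to a GPR43 stable line. Before this, cells were dye-loaded (Calcium 4 with 2.5 mM probenecid) for 2 h at 37 °C after overnight plating.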", "units": {"IC50": "nM"}}
{"smiles": "Cc1cc(C)cc(CC(=O)N2CCC2(C)C(=O)N(Cc2ccc(Cl)cc2)Cc2cc(O)[nH]n2)c1", "note": "(centres unmarked) [Compound 133, 1-[2-(3,5-Dimethyl-phenyl)-acetyl]-2-methyl-azetidine-2-carboxylic acid (4-chloro-benzyl)-(5-hydroxy-1H-pyrazol-3-ylmethyl)-amide]", "IC50": "0.01 to 100"}
{"smiles": "Cc1cc(C)cc(CC(=O)N2CCC2(C)C(=O)N(CCCS(=O)(=O)N2CCN(C)CC2)Cc2ccc(Cl)cc2)c1", "note": "(centres unmarked) [Compound 180, 1-[2-(3,5-Dimethyl-phenyl)-acetyl]-2-methyl-azetidine-2-carboxylic acid (4-chloro-benzyl)-[3-(4-methyl-piperazine-1-sulfonyl)-propyl]-amide]", "IC50": "501 to 1000"}
{"smiles": "CCCC1(C(=O)N(CCCC(=O)O)Cc2cccc(Cl)c2)CCN1C(=O)c1csc2ccccc12", "note": "(centres unmarked) [Compound 204, 4-[[1-(Benzo[b]thiophene-3-carbonyl)-2-propyl-azetidine-2-carbonyl]-(3-chloro-benzyl)-amino]-butyric acid]", "IC50": "0.01 to 100"}
{"smiles": "CC[C@@]1(C(=O)N(CCCS(N)(=O)=O)[C@@H](C)c2ccc(Cl)cc2)CCN1C(=O)c1csc2ccccc12", "note": "[Compound 245, (S)-1-(benzo[b]thiophene-3-carbonyl)-N-((S)-1-(4-chlorophenyl)ethyl)-2-ethyl-N-(3-sulfamoylpropyl)azetidine-2-carboxamide]", "IC50": "101 to 500"}
{"smiles": "CC1(C(=O)N(CCCC(=O)O)Cc2ccc(Cl)cc2)CCN1C(=O)Oc1csc2ccccc12", "note": "(centres unmarked) [Compound 211, 4-(1-((benzo[b]thiophen-3-yloxy)carbonyl)-N-(4-chlorobenzyl)-2-methylazetidine-2-carboxamido)butanoic acid]", "IC50": "0.01 to 100"}
{"smiles": "CCC1(C(=O)N(CCCC(=O)NS(C)(=O)=O)Cc2cccc(Cl)c2)CCN1C(=O)c1csc2ccccc12", "note": "(centres unmarked) [Compound 228, 1-(benzo[b]thiophene-3-carbonyl)-N-(3-chlorobenzyl)-2-ethyl-N-(4-(methylsulfonamido)-4-oxobutyl)azetidine-2-carboxamide]", "IC50": "0.01 to 100"}
{"smiles": "CC1(C(=O)N(CCCC(=O)O)Cc2ccc(Cl)cc2)CCN1C(=O)Cc1cccc2sccc12", "note": "(centres unmarked) [Compound 136, 4-[[1-(2-Benzo[b]thiophen-4-yl-acetyl)-2-methylazetidine-2-carbonyl]-(4-chloro-benzyl)-amino]-butyric acid]", "IC50": "101 to 500"}
{"smiles": "Cc1cc(C)cc(CC(=O)N2CCC2(C)C(=O)N(Cc2ccc(Cl)cc2)Cc2nnc(O)o2)c1", "note": "(centres unmarked) [Compound 111, 1-[2-(3,5-Dimethyl-phenyl)-acetyl]-2-methyl-azetidine-2-carboxylic acid (4-chloro-benzyl)-(5-hydroxy-[1,3,4]oxadiazol-2-ylmethyl)-amide]", "IC50": "501 to 1000"}
{"smiles": "CN(Cc1ccc(Cl)cc1)C(=O)C1(C)CCN1C(=O)Cc1cccc2sccc12", "note": "(centres unmarked) [Compound 105, 1-(2-Benzo[b]thiophen-4-yl-acetyl)-2-methyl-azetidine-2-carboxylic acid (4-chloro-benzyl)-methyl-amide]", "IC50": "> 1000"}
{"smiles": "Cc1cc(C)cc(CC(=O)N2CCC2(C)C(=O)N(CCc2noc(O)n2)Cc2ccc(Cl)cc2)c1", "note": "(centres unmarked) [Compound 107, 1-[2-(3,5-Dimethyl-phenyl)-acetyl]-2-methyl-azetidine-2-carboxylic acid (4-chloro-benzyl)-[2-(5-hydroxy-[1,2,4]oxadiazol-3-yl)-ethyl]-amide]", "IC50": "> 1000"}
{"smiles": "CCOc1cc(CCN(Cc2ccc(Cl)cc2)C(=O)C2(C)CCN2C(=O)Cc2cc(C)cc(C)c2)n[nH]1", "note": "(centres unmarked) [Compound 120, 1-[2-(3,5-Dimethyl-phenyl)-acetyl]-2-methyl-azetidine-2-carboxylic acid (4-chloro-benzyl)-[2-(5-ethoxy-1H-pyrazol-3-yl)-ethyl]-amide]", "IC50": "> 1000"}
{"smiles": "CC1(C(=O)N(CCCC(=O)O)c2ccc(Cl)cn2)CCN1C(=O)c1csc2ccccc12", "note": "(centres unmarked) [Compound 250, 4-(1-(benzo[b]thiophene-3-carbonyl)-N-(5-chloropyridin-2-yl)-2-methylazetidine-2-carboxamido)butanoic acid]", "IC50": "501 to 1000"}
{"smiles": "CC1(C(=O)N(CCC(=O)O)Cc2ccc(Cl)cc2)CCN1C(=O)Cc1coc2ccccc12", "note": "(centres unmarked) [Compound 154, 3-[[1-(2-Benzofuran-3-yl-acetyl)-2-methyl-azetidine-2-carbonyl]-(4-chloro-benzyl)-amino]-propionic acid]", "IC50": "> 1000"}
{"smiles": "Cc1cc(C)cc(CC(=O)N2CCC2(C)C(=O)N(CCCC(=O)O)Cc2ccc(C(F)(F)F)cc2)c1", "note": "(centres unmarked) [Compound 159, 4-[{1-[2-(3,5-Dimethyl-phenyl)-acetyl]-2-methyl-azetidine-2-carbonyl}-(4-trifluoromethyl-benzyl)-amino]-butyric acid]", "IC50": "501 to 1000"}
{"smiles": "Cc1cccc(CC2(C(=O)N(CCCC(=O)O)Cc3cccc(Cl)c3)CCN2C(=O)c2csc3ccccc23)c1", "note": "(centres unmarked) [Compound 220, 4-(1-(benzo[b]thiophene-3-carbonyl)-N-(3-chlorobenzyl)-2-(3-methylbenzyl)azetidine-2-carboxamido)butanoic acid]", "IC50": "501 to 1000"}
{"smiles": "Cc1cc(C)cc(CC(=O)N2CCC2(C)C(=O)N(CCc2nnc(O)o2)Cc2ccc(Cl)cc2)c1", "note": "(centres unmarked) [Compound 119, 1-[2-(3,5-Dimethyl-phenyl)-acetyl]-2-methyl-azetidine-2-carboxylic acid (4-chloro-benzyl)-[2-(5-hydroxy-[1,3,4]oxadiazol-2-yl)-ethyl]-amide]", "IC50": "> 1000"}
{"smiles": "CNS(=O)(=O)CCCN(Cc1cccc(Cl)c1)C(=O)C1(C)CCN1C(=O)c1csc2ccccc12", "note": "(centres unmarked) [Compound 190, 1-(Benzo[b]thiophene-3-carbonyl)-2-methyl-azetidine-2-carboxylic acid (3-chloro-benzyl)-(3-methylsulfamoyl-propyl)-amide]", "IC50": "0.01 to 100"}
{"smiles": "COc1cccc(CC2(C(=O)N(CCCC(=O)O)Cc3cccc(Cl)c3)CCN2C(=O)c2csc3ccccc23)c1", "note": "(centres unmarked) [Compound 221, 4-(1-(benzo[b]thiophene-3-carbonyl)-N-(3-chlorobenzyl)-2-(3-methoxybenzyl)azetidine-2-carboxamido)butanoic acid]", "IC50": "101 to 500"}
{"smiles": "Cc1cc(C)cc(CC(=O)N2CCC2(C)C(=O)N(CCCN2CCCC2=O)Cc2ccc(Cl)cc2)c1", "note": "(centres unmarked) [Compound 149, 1-[2-(3,5-Dimethyl-phenyl)-acetyl]-2-methyl-azetidine-2-carboxylic acid (4-chloro-benzyl)-[3-(2-oxo-pyrrolidin-1-yl)-propyl]-amide]", "IC50": "> 1000"}
{"smiles": "Cc1cc(C)cc(CC(=O)N2CCC2(C)C(=O)N(CCc2cc(O)[nH]n2)Cc2ccc(Cl)cc2)c1", "note": "(centres unmarked) [Compound 116, 1-[2-(3,5-Dimethyl-phenyl)-acetyl]-2-methyl-azetidine-2-carboxylic acid (4-chloro-benzyl)-[2-(5-hydroxy-1H-pyrazol-3-yl)-ethyl]-amide]", "IC50": "> 1000"}
{"smiles": "CC1(C(=O)N(CCCC(=O)NS(C)(=O)=O)Cc2ccc(Cl)cc2)CCN1C(=O)c1csc2ccccc12", "note": "(centres unmarked) [Compound 240, 1-(benzo[b]thiophene-3-carbonyl)-N-(4-chlorobenzyl)-2-methyl-N-(4-(methylsulfonamido)-4-oxobutyl)azetidine-2-carboxamide]", "IC50": "101 to 500"}
{"smiles": "CC1(C(=O)N(CCCC(=O)N2CCOCC2)Cc2ccc(Cl)cc2)CCN1C(=O)Cc1csc2ccccc12", "note": "(centres unmarked) [Compound 129, 1-(2-Benzo[b]thiophen-3-yl-acetyl)-2-methyl-azetidine-2-carboxylic acid (4-chloro-benzyl)-(4-morpholin-4-yl-4-oxo-butyl)-amide]", "IC50": "0.01 to 100"}
{"smiles": "Cc1cc(C)cc(CC(=O)N2CCC2(C)C(=O)N(CCCC(=O)O)Cc2cccc(Cl)c2)c1", "note": "(centres unmarked) [Compound 161, 4-((3-Chloro-benzyl)-{1-[2-(3,5-dimethyl-phenyl)-acetyl]-2-methyl-azetidine-2-carbonyl}-amino)-butyric acid]", "IC50": "> 1000"}
{"smiles": "COc1cccc(CC2(C(=O)N(CCCC(=O)NS(C)(=O)=O)Cc3cccc(Cl)c3)CCN2C(=O)c2csc3ccccc23)c1", "note": "(centres unmarked) [Compound 242, 1-(benzo[b]thiophene-3-carbonyl)-N-(3-chlorobenzyl)-2-(3-methoxybenzyl)-N-(4-(methylsulfonamido)-4-oxobutyl)azetidine-2-carboxamide]", "IC50": "501 to 1000"}
{"smiles": "C[C@]1(C(=O)N(CCCC(=O)NS(C)(=O)=O)Cc2cccc(Cl)c2)CCN1C(=O)c1csc2ccccc12", "note": "[Compound 207, (R)-1-(benzo[b]thiophene-3-carbonyl)-N-(3-chlorobenzyl)-2-methyl-N-(4-(methylsulfonamido)-4-oxobutyl)azetidine-2-carboxamide]", "IC50": "0.01 to 100"}
{"smiles": "CC1(C(=O)N(CCCC#N)Cc2ccc(Cl)cc2)CCN1C(=O)Cc1csc2ccccc12", "note": "(centres unmarked) [Compound 99, 1-(2-Benzo[b]thiophen-3-yl-acetyl)-2-methyl-azetidine-2-carboxylic acid (4-chloro-benzyl)-(3-cyano-propyl)-amide]", "IC50": "101 to 500"}
{"smiles": "CC1(C(=O)N(CCCC(=O)O)Cc2ccc3cn[nH]c3c2)CCN1C(=O)Cc1coc2ccccc12", "note": "(centres unmarked) [Compound 156, 4-[[1-(2-Benzofuran-3-yl-acetyl)-2-methyl-azetidine-2-carbonyl]-(1H-indazol-6-ylmethyl)-amino]-butyric acid]", "IC50": "101 to 500"}
{"smiles": "CC1(C(=O)N(CCCC(=O)O)Cc2ccc3ccoc3c2)CCN1C(=O)c1csc2ccccc12", "note": "(centres unmarked) [Compound 163, 4-{[1-(Benzo[b]thiophene-3-carbonyl)-2-methyl-azetidine-2-carbonyl]-benzofuran-6-ylmethyl-amino}-butyric acid]", "IC50": "101 to 500"}
{"smiles": "CNS(=O)(=O)CCN(Cc1ccc(Cl)cc1)C(=O)C1(C)CCN1C(=O)c1csc2ccccc12", "note": "(centres unmarked) [Compound 193, 1-(Benzo[b]thiophene-3-carbonyl)-2-methyl-azetidine-2-carboxylic acid (4-chloro-benzyl)-(2-methylsulfamoyl-ethyl)-amide]", "IC50": "101 to 500"}
